Target: SspH1 (161–700) (Salmonella typhimurium, UniProt D0ZVG2)
Experiment: Substrate (PKN1) ubiquitination assay
Format: biochemical
Design: SspH1 (5 μM, 161–700) was prelabelled at 350 rpm, RT for 18 hours; His-tag (N, cleaved yes); made in house; host or cells: E. coli BL21
Settings: SspH1 pre-labelled with compound overnight at RT; 0–30 minutes
Experimental: Fig. 4 SspH1 in vitro inhibition with compounds 6 and 7. (A) Discharge assay schematic; (B) E2–Ub discharge time course assay with SspH1 pre-treated with either DMSO or compounds 6 or 7. UbcH5A–Ub-cy3 (1 μM) was incubated at RT for 0–30 minutes with SspH1 (residues 161–700, 50 nM) which had been pre-labelled with 6 or 7 at RT overnight. (C) Substrate ubiquitination assay schematic; (D) PKN1 ubiquitination time course assay with SspH1 pre-treated with either DMSO or compounds 6 or 7. A reaction of UBA1 (0.1 μM), UbcH5A (2 μM), ubiquitin (20 μM), PKN1 HR1b (2 μM, residues 122–199) and 10 mM ATP was incubated at RT for 0–30 minutes with SspH1 (residues 161–700, 0.5 μM) which had been pre-labelled with 6 or 7 at RT overnight.
Alternatively, substrate ubiquitination can be followed in vitro using a reconstituted ubiquitin enzymatic cascade, where recombinant ubiquitin, E1, E2, E3 and substrate are incubated with ATP (Fig. 4C). With SspH1, E3 ligase activity can then be observed by ubiquitination of its substrate PKN1.[25] This assay represents a higher order of complexity and involves three enzymes with catalytic cysteines (E1, E2 and E3) and is closer to in situ E3 activity. We compared SspH1 ubiquitination activity when SspH1 was pre-treated with DMSO or compound 6 or 7 (Fig. 4D), again overnight at room temperature to ensure complete labelling. […]

Chain of SspH1 (161–700) (D0ZVG2 161-700): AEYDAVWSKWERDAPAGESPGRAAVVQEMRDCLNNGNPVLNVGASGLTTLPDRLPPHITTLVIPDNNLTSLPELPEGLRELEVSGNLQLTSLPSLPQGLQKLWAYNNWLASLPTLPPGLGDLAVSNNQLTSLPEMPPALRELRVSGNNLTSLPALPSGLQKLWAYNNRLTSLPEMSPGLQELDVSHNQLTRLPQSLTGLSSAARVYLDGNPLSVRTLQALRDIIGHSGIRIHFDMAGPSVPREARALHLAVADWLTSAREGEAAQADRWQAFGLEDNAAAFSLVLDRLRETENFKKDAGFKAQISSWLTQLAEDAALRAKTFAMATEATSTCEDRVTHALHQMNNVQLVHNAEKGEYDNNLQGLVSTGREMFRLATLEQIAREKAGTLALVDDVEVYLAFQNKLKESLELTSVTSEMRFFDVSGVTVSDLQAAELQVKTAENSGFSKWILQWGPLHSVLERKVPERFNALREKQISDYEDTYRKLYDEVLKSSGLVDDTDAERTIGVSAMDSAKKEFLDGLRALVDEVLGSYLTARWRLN

## Cc1cc(-c2nc3ccccc3n2C2CCN(C(=O)CCl)CC2)cc(C)c1O.Cl [compound 6]
  PKN1 ubiquitination: completely abrogated

## Cl.O=C(CCl)N1CCC(n2c(-c3ccc(C(F)(F)F)cc3)nc3ccccc32)CC1 [compound 7]
  PKN1 ubiquitination: completely abrogated

Source: publication PMC12584752, “Covalent fragment screening to inhibit the E3 ligase activity of bacterial NEL enzymes SspH1 and SspH2” (RSC Chemical Biology, 2025)
